Source: ChEMBL document CHEMBL3507680, “University of Dundee, Gates Library screen for HepG2 cell viability”

Test: Human HepG2 cell viability assay in 384 well format
Assay type: toxicity, cell-based
Parameters: dose 125 nL, time 70.5 hour; cytotoxicity at 70.5 h: concentration not given beside the values
Settings: HepG2 cells, read-out: Inhibition

| Compound | cytotoxicity at 70.5 h |
| --- | --- |
| O=C(N1CCCC1)N1CCCC(c2nccn2Cc2ccncc2)C1 (stereo not drawn) | -8.72% |
| Cc1nnc(NC(=O)N2CCN(Cc3ccc(F)cc3)C(=O)C2)s1 | 1.21% |
| CN(C)c1nc(-c2ccncc2)nc2c1CCN(C(=O)[C@H](N)CO)C2 | -6.08% |
| Cc1ccc(C(=O)N2CCC(c3nccn3C(C)C)CC2)c(=O)[nH]1 | -6.37% |
| O=C(O)C1(n2cccn2)CCN(c2nc(-c3ccccc3)no2)CC1 | 0.502% |
| O=C(NCCc1ccccc1)c1cn(CCNCc2cccnc2)nn1 | -6.19% |
| CCCN1CCN(Cc2cn(CCC(N)=O)c3ccccc23)CC1 | -3.42% |
| Cc1cccnc1C(Nc1nccc(C2CCCC2)n1)C1CC1 (stereo not drawn) | 0.357% |
| CCC(=O)c1ccc(OCC(=O)NC(C)c2nnc(C)[nH]2)cc1 (stereo not drawn) | -3.79% |
| Cc1nc(NCC23CCCN2CCC3)cc(C2CCCNC2)n1 (stereo not drawn) | -4.8% |
| N[C@@H]1CCN(Cc2ccccc2CS(=O)(=O)c2ccccc2)C[C@H]1O | -8.1% |
| Cc1ccc(C#N)c(N2CCCC(c3nccn3Cc3cscn3)C2)n1 (stereo not drawn) | -3.22% |
| Cc1nnc(CN2CCC3(CCC(=O)N(C4CC4)C3)CC2)o1 | 11.6% |
| Cc1cc(-c2nn(C)c(Cl)c2CN2CC[C@H](CO)[C@@H](O)C2)no1 | 8.05% |
| COC(=O)c1cc2n(n1)CCCN(C(=O)Cc1c[nH]c3ccccc13)C2 | -13.9% |
| COc1cc(-n2ccnc2-c2ccc(C(=O)O)s2)ccc1NC(C)=O | -7.67% |
| Cc1ccc(C2(O)CCN(C(=O)c3cccc(S(C)(=O)=O)c3)CC2)nc1 | -4.42% |
| CC(C)N1CCCC2(CCN(Cc3noc(C4CCCC4)n3)C2)C1=O (stereo not drawn) | 11% |
| CCc1cnc(N)nc1NCCCn1cc(Cl)cn1 | -5.81% |
| COc1ccnc(N2CCC3(CCCN(C(C)C)C3=O)C2)n1 (stereo not drawn) | -1.71% |
| O=C(c1ccc(O)cn1)N1CCOC(c2ccc(Cl)c(Cl)c2)C1 (stereo not drawn) | -3.33% |
| CC(CC(F)(F)F)NCc1ccccc1-n1ccnc1 (stereo not drawn) | -10.9% |
| c1ccc(-c2nc3c(c(NCCCn4cncn4)n2)CCNCC3)nc1 | -13.5% |
| CC(C)(C)c1nc(CN2CCC3(CCCO3)CCC2=O)no1 (stereo not drawn) | -5.98% |
| COc1ccc(F)c(CN2CCCC(c3cc(O)nc(C)n3)C2)c1 (stereo not drawn) | -3.96% |
| Cc1ncsc1CCN(C)C(=O)CN1CCOC1=O | 8.27% |

| Compound | cytotoxicity at 70.5 h |
| --- | --- |
| O=c1cc(CN2CC[C@H]3CC[C@@H](C2)N3)c2cccc3c2n1CCC3 | -14.4% |
| COCCN1CC2(CCCN(c3ncc(Cl)cc3F)C2)CCC1=O (stereo not drawn) | 3.19% |
| Cc1cc(N2CCC(CO)(CC3CCCCO3)CC2)c2ccccc2n1 (stereo not drawn) | 2.86% |
| CN(C)c1nc2c(c(N(C)C)n1)CCN(C(=O)CN1C[C@@H]3CC[C@H]1C3)C2 | -6.59% |
| CC1(C)OC(=O)N(CCCC(=O)c2ccc(F)cc2)C1=O | -16.8% |
| COc1ccccc1-n1cc(CN2CCN(C)[C@@H]3CS(=O)(=O)C[C@@H]32)cn1 | -7.42% |
| Cc1ccc(CNC(=O)CCN2CCOC(C(F)(F)F)C2)cc1 (stereo not drawn) | -2.06% |
| CC(CN1CCCC1)C(=O)NCC1CCN(c2cnn(C)c(=O)c2)CC1 (stereo not drawn) | -5.06% |
| Cc1ccc(Oc2ncccc2CNS(=O)(=O)N2CCOCC2)cn1 | -4.6% |
| CC(C)n1ccnc1C1CCCN(c2ccncc2F)C1 (stereo not drawn) | -5.94% |
| COCC1CCN(S(=O)(=O)NCC2COc3ccccc3C2)CC1 (stereo not drawn) | 13.9% |
| COc1ccc2c(C)c(C(=O)N3CCC(NC(C)=O)C3)oc2c1 (stereo not drawn) | -3.36% |
| Cc1c(Cl)c(C(=O)N2C[C@@H](C(=O)O)[C@H](c3cccnc3)C2)nn1C | 8.35% |
| Cc1ccc2c(C)c(C(=O)NCCc3csc(N)n3)oc2c1 | 7.44% |
| Cc1ccc(C2(CN(C)Cc3sccc3C)CCNCC2)nc1 | 10.6% |
| Cc1ccc(OC2CCN(C(=O)Cc3c(C)[nH]c(=O)[nH]c3=O)CC2)cc1 | -10.2% |
| CCc1nc2c(N3CCCC(c4nccn4CCOC)C3)ncnc2o1 (stereo not drawn) | 26.1% |
| CCCn1cnnc1CNC(=O)CC1C(=O)NCCN1CC=C(C)C (stereo not drawn) | -0.65% |
| O=C(c1ccc(Cl)s1)N1CCCn2nc(CN3CC[C@H](F)C3)cc2C1 | -10.2% |
| CCCn1ncc(CN2CCCC(C(=O)c3ccc(Cl)cc3C)C2)c1C (stereo not drawn) | -7.11% |
| Cc1cccc(=O)n1CCCNc1nc(N(C)C)nc2c1CCNCC2 | -3.24% |
| Cc1c(NC(=O)c2ncn[nH]2)cccc1C(=O)NC(C)(C)C | -12.5% |
| Cc1nc(-c2c(-c3ccccc3)ncn2CCCN2CCOCC2)c[nH]1 | -8.17% |
| Cc1ccc(C(=O)NC2CCN(C)CC2)cc1N(C)S(C)(=O)=O | -6.98% |
| COc1ccccc1Oc1ncccc1CNC(=O)[C@@H](N)CCO | 8.7% |
| CCCn1ncc(-c2ccnc(N[C@@H]3C[C@@H]4CC[C@H]3C4)n2)c1C | -2.1% |

| Compound | cytotoxicity at 70.5 h |
| --- | --- |
| CC(=O)c1cnc(NCC2OCCc3ccccc32)nc1C (stereo not drawn) | -9.22% |
| CC(c1ccncn1)N(C)Cc1cc(O)c2cc(F)ccc2n1 (stereo not drawn) | -8.14% |
| COCCN1C(=O)[C@H]2CC[C@@H]1CN(c1nccc(C)n1)C2 | -9.1% |
| CC(C(N)=O)N1CCc2onc(-c3cccc(F)c3)c2C1 (stereo not drawn) | -12.5% |
| CNc1ncc(C(=O)N2CCCC(CO)(CCCOC)C2)cn1 (stereo not drawn) | 4.14% |
| COc1ccc(C)cc1NC(=O)c1coc(C)n1 | -5.37% |
| C=C(C)COc1cccc(C(=O)NCCCc2nnn[nH]2)c1 | -12.4% |
| COc1cc(C)cc(C(C(=O)O)N(C)Cc2cnn(C)c2)c1OC (stereo not drawn) | 4.79% |
| Cc1cnc(NCCCN2CCc3ccccc32)nc1 | -3.85% |
| O=C1N(c2ccccc2)Cc2n[nH]c(=O)n21 | -0.951% |
| Cc1ccc(C(=O)NCCC2CCN(C)CC2)cc1N(C)S(C)(=O)=O | 24% |
| CN(C)[C@H]1CCCCN(C(=O)c2cccc(N3CCS(=O)(=O)CC3)c2)C1 | -8.16% |
| CC(C)n1cc(CN(Cc2ccc(F)cc2)CC2CCCO2)cn1 (stereo not drawn) | 15.6% |
| Cc1cnn(CCCN2C(=O)CCc3ccccc32)c1 | 11.4% |
| OC1(c2cn(CC3CCN(C4CCSC4)CC3)nn2)CCCC1 (stereo not drawn) | 1.14% |
| COCc1ncc(CN(Cc2ccncc2)Cc2ccc(C)s2)cn1 | -6.86% |
| COc1cccc(C(=O)Nc2ccc(OC3CCN(C)CC3)cc2)c1 | -4.5% |
| CCN1CCN(S(=O)(=O)c2ccc(Cc3cc(C)n[nH]c3=O)cc2)CC1 | -10.8% |
| O=C1N(c2ccc(F)cc2)Cc2n[nH]c(=O)n21 | -2.51% |
| CC1CCN(CCCNC(=O)c2ccc(N(C)S(C)(=O)=O)cc2Cl)CC1 | -4.93% |
| COCCCn1cnnc1C(C)NC(=O)c1[nH]c2ccc(C)cc2c1C (stereo not drawn) | -4.22% |
| CCCS(=O)(=O)N1CCN(c2cc(-n3ccnc3)nc(C)n2)CC1 | -3.96% |
| CC(=O)c1cc(CN2C[C@H]3CC[C@@H]2CN(Cc2c(C)noc2C)C3)cs1 | -8.51% |
| CCSc1nsc(NC(=O)COc2ccc3c(c2)OCO3)n1 | -8.05% |
| CN(C)S(=O)(=O)N1CC[C@]2(O)CCN(c3ncccn3)C[C@@H]2C1 | -9.31% |
| O=C(Cc1n[nH]c(-c2cncc(Br)c2)n1)NCc1ccccn1 | -8.81% |
